Measurements reported in ChEMBL document CHEMBL5247611, “A bibliometric analysis of PROTAC from 2001 to 2021” (Eur J Med Chem, 2022).
pEC50, pIC50: −log10 of the molar value. Values belong to the molecule of their own block, whether it stands above or below them.

Tests used:
NCI-H358 = experiment: Antiproliferative activity against human NCI-H358 cells assessed as inhibition of cell growth incubated for 5 days by celltiter-glo luminescent cell viability assay; format: functional, cell-based; settings: NCI-H358, 120 h
[1] = target: T1, von Hippel-Lindau disease tumor suppressor/Bromodomain-containing protein 4 (Homo sapiens, UniProt O60885+P40337); experiment: Protac activity at VHL/BRD4 in human HCT-116 cells assessed as degradation of BRD4 incubated for 24 hrs by immunoblot assay; format: cell-based
T1 sequence (P40337 whole entry, looked up, other chains not shown): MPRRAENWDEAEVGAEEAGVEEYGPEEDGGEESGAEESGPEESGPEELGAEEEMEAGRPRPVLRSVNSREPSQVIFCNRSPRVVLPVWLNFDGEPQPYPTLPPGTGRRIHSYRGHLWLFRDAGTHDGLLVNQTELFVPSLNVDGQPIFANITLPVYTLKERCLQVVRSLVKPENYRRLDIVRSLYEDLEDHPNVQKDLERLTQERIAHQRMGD

[2] = target: Protein cereblon/Bromodomain-containing protein 4 (Homo sapiens, UniProt O60885+Q96SW2); experiment: Protac activity at CRBN/BRD4 (unknown origin); format: protein assay
Sequence of Protein cereblon/Bromodomain-containing protein 4 (Q96SW2 whole entry, looked up, other chains not shown): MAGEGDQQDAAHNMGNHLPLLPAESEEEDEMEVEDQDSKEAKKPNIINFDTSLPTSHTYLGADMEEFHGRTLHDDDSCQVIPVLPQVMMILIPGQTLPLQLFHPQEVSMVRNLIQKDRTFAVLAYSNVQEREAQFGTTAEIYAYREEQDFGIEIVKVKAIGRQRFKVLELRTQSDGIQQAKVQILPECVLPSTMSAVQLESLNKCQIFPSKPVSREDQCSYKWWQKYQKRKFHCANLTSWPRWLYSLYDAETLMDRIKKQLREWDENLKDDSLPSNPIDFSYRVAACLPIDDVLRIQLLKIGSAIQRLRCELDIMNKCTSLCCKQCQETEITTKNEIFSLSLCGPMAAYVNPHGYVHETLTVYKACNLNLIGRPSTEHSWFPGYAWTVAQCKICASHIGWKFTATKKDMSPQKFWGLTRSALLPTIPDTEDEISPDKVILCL

[3] = target: Protein cereblon/GTPase KRas (Homo sapiens, UniProt P01116+Q96SW2, G12C); experiment: Protac activity at CRBN/KRAS G12C mutant in human NCI-H358 cells assessed as degradation of KRAS G12C mutant; format: cell-based
[4] = Cytotoxicity against HEK293 cells assessed as inhibition of cell growth; format: toxicity, cell-based; settings: human
[5] = target: T2, von Hippel-Lindau disease tumor suppressor/Bromodomain-containing protein 3 (Homo sapiens, UniProt P40337+Q15059); experiment: Protac activity at VHL/BRD3 in HEK293 cells assessed as degradation of BRD3 incubated for 4 hrs by Western blot analysis; format: cell-based
T2 sequence (Q15059 whole entry): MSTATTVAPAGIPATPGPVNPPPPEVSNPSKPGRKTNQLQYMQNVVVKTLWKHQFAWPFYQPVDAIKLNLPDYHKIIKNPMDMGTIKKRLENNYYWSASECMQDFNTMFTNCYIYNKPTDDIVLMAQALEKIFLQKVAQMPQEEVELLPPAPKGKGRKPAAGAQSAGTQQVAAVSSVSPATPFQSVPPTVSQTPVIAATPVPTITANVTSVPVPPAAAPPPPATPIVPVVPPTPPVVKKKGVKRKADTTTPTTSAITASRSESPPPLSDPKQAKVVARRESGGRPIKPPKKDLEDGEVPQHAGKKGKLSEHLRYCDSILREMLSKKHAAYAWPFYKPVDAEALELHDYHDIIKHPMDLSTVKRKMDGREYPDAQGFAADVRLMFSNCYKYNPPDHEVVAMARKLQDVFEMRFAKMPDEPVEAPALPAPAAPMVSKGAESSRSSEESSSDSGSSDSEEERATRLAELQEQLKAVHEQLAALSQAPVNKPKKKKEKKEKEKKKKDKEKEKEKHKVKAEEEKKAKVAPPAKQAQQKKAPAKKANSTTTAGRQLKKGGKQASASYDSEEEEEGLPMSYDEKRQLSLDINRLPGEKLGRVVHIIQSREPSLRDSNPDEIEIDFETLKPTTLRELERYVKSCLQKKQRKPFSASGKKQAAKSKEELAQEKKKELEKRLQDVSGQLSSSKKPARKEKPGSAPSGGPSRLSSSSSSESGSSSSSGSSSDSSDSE
T2 sequence (P40337 whole entry): as the sequence (P40337 whole entry, looked up, other chains not shown) above

[6] = target: T3, von Hippel-Lindau disease tumor suppressor/Bromodomain-containing protein 2 (Homo sapiens, UniProt P25440+P40337); experiment: Protac activity at VHL/BRD2 in HEK293 cells assessed as degradation of BRD2 incubated for 4 hrs by Western blot analysis; format: cell-based
T3 sequence (P25440 whole entry): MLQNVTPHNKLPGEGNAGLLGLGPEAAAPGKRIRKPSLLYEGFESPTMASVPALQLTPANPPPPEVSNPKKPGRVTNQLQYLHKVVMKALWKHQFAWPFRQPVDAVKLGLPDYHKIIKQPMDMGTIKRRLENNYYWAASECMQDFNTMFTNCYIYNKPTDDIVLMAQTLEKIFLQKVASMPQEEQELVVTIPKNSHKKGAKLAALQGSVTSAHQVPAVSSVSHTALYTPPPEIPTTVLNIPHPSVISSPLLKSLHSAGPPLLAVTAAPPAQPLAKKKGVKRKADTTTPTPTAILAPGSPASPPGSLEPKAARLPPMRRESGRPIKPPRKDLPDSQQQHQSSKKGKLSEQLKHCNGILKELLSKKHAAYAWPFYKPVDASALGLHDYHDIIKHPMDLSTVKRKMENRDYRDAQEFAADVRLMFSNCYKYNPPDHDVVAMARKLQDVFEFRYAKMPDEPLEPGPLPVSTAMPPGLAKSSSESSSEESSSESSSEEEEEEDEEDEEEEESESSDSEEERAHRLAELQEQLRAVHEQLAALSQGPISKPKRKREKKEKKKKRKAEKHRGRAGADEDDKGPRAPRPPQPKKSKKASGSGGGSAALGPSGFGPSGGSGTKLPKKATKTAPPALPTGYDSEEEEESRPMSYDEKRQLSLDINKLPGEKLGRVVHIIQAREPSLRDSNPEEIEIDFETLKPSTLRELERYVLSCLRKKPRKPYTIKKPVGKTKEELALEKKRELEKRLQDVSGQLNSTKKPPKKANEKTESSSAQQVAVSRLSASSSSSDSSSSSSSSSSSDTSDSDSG
T3 sequence (P40337 whole entry): as the sequence (P40337 whole entry, looked up, other chains not shown) above

[7] = target: T1, von Hippel-Lindau disease tumor suppressor/Bromodomain-containing protein 4; experiment: Protac activity at VHL/BRD4 in HEK293 cells assessed as degradation of BRD4 incubated for 4 hrs by Western blot analysis; format: cell-based
[8] = target: Androgen receptor (Homo sapiens) (UniProt P10275); experiment: Binding affinity to androgen receptor (unknown origin) at 10 uM relative to control
LNCaP = experiment: Antiproliferative activity against human LNCaP cells; format: functional, cell-based
[9] = target: von Hippel-Lindau disease tumor suppressor/Histone deacetylase 3 (Homo sapiens, UniProt O15379+P40337); experiment: Protac activity at VHL/HDAC3 in human MDA-MB-468 assessed as degradation of HDAC3 incubated for 14 hrs by Western blot analysis; format: cell-based
Sequence of von Hippel-Lindau disease tumor suppressor/Histone deacetylase 3 (O15379 whole entry): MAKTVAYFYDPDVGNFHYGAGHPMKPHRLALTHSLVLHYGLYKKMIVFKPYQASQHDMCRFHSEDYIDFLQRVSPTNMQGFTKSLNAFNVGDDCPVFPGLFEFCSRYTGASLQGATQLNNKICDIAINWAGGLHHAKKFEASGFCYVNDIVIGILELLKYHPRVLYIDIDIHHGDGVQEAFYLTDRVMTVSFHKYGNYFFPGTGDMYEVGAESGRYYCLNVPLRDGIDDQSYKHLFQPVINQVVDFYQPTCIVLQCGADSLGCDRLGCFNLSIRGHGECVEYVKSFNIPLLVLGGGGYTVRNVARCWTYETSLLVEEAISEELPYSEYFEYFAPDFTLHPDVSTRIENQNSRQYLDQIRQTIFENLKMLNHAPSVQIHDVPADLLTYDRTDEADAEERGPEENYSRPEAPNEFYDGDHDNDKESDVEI
Sequence of von Hippel-Lindau disease tumor suppressor/Histone deacetylase 3 (P40337 whole entry): as the sequence (P40337 whole entry, looked up, other chains not shown) above

[10] = target: Protein cereblon/Cyclin-dependent kinase 6 (Homo sapiens, UniProt Q00534+Q96SW2); experiment: Protac activity at CRBN/CDK6 in human MDA-MB-231 cells; format: cell-based
[11] = target: Protein cereblon/Cyclin-dependent kinase 4 (Homo sapiens, UniProt P11802+Q96SW2); experiment: Protac activity at CRBN/CDK4 in human MDA-MB-231 cells; format: cell-based
Sequence of Protein cereblon/Cyclin-dependent kinase 4 (P11802 whole entry): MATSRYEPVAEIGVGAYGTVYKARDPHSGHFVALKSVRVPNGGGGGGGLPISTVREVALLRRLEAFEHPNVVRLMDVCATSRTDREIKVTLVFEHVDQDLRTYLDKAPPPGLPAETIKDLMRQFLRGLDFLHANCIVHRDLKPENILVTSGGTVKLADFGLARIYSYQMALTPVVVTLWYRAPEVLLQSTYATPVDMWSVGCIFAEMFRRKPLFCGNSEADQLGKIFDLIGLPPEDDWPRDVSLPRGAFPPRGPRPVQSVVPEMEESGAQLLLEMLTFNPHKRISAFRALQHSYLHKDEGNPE
Sequence of Protein cereblon/Cyclin-dependent kinase 4 (Q96SW2 whole entry): as the sequence (Q96SW2 whole entry, looked up, other chains not shown) above

BaF3 = experiment: Antiproliferative activity against mouse BaF3 cells harboring EGFR L858R/T790M mutant assessed as cell growth inhibition incubated for 72 hrs; format: functional, cell-based; settings: BaF3, 72 h
[12] = target: Protein cereblon/Protein deacetylase HDAC6 (Homo sapiens, UniProt Q96SW2+Q9UBN7); experiment: Protac activity at CRBN/HDAC6 in human MM1.S assessed as degradation of HDAC6 incubated for 6 hrs by ELISA; format: cell-based
[13] = target: Protein fem-1 homolog B/Bromodomain-containing protein 4 (Homo sapiens, UniProt O60885+Q9UK73); experiment: Protac activity at FEM1B/BRD4 in human HEK293T cells assessed as degradation of BRD4 incubated for 8 hrs by Western blot analysis; format: cell-based
MM1.S = experiment: Antiproliferative activity against human MM1.S cells incubated for 72 hrs by MTS assay; format: functional, cell-based
[14] = target: T4, von Hippel-Lindau disease tumor suppressor/GTPase KRas (Homo sapiens, UniProt P01116+P40337, G12C); experiment: Protac activity at VHL/KRAS G12C mutant in human NCI-H2030 cells assessed as degradation of KRAS G12C mutant incubated for 24 hrs by immunoblot assay; format: cell-based
T4 sequence (P01116 whole entry G12C, stated change not applied): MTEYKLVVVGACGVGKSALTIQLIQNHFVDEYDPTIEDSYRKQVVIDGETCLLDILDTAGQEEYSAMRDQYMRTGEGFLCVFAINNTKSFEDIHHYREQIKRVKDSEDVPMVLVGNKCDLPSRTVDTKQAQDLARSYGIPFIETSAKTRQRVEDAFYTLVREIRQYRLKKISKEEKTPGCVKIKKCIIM
T4 sequence (P40337 whole entry, stated change not applied): as the sequence (P40337 whole entry, looked up, other chains not shown) above

[15] = target: T4, von Hippel-Lindau disease tumor suppressor/GTPase KRas; experiment: Protac activity at VHL/KRAS G12C mutant in human NCI-H23 cells assessed as degradation of KRAS G12C mutant incubated for 24 hrs by immunoblot assay; format: cell-based
[16] = target: T4, von Hippel-Lindau disease tumor suppressor/GTPase KRas; experiment: Protac activity at VHL/KRAS G12C mutant in human SW1573 cells assessed as degradation of KRAS G12C mutant incubated for 24 hrs by immunoblot assay; format: cell-based
[17] = target: T4, von Hippel-Lindau disease tumor suppressor/GTPase KRas; experiment: Protac activity at VHL/KRAS G12C mutant in human NCI-H358 cells assessed as degradation of KRAS G12C mutant incubated for 24 hrs by immunoblot assay; format: cell-based
[18] = target: T4, von Hippel-Lindau disease tumor suppressor/GTPase KRas; experiment: Protac activity at VHL/KRAS G12C mutant in human MIA PaCa-2 cells assessed as degradation of KRAS G12C mutant incubated for 24 hrs by immunoblot assay; format: cell-based
MCF7 [19] = experiment: Antiproliferative activity against human MCF7 cells assessed as cell growth inhibition incubated for 6 days with media replacement for every 2 to 3 days by MTT assay; format: functional, cell-based
[20] = target: von Hippel-Lindau disease tumor suppressor/Estrogen receptor (Homo sapiens, UniProt P03372+P40337); experiment: Protac activity at VHL/ER alpha in human MCF7 cells assessed as degradation of ER alpha incubated for 6 hrs by Western blot analysis; format: cell-based
[21] = target: T3, von Hippel-Lindau disease tumor suppressor/Bromodomain-containing protein 2; experiment: Protac activity at VHL/BRD2 in human HeLa cells assessed as degradation of BRD2 incubated for 24 hrs by Western blotting analysis; format: cell-based
MV4-11 = experiment: Antiproliferative activity against human MV4-11 cells incubated for 48 to 72 hrs by celltiter-glo luminescent cell viability assay; format: functional, cell-based
[22] = target: T1, von Hippel-Lindau disease tumor suppressor/Bromodomain-containing protein 4; experiment: Protac activity at VHL/BRD4 in human HeLa cells assessed as degradation of BRD4 incubated for 24 hrs by Western blotting analysis; format: cell-based
[23] = target: T2, von Hippel-Lindau disease tumor suppressor/Bromodomain-containing protein 3; experiment: Protac activity at VHL/BRD3 in human HeLa cells assessed as degradation of BRD3 incubated for 24 hrs by Western blotting analysis; format: cell-based
MCF7 [24] = experiment: Antiproliferative activity against human MCF7 cells assessed as inhibition of cell growth measured after 5 days by PrestoBlue cell viability assay; format: functional, cell-based; settings: MCF7, 120 h
[25] = target: von Hippel-Lindau disease tumor suppressor/Cyclin-dependent kinase 6 (Homo sapiens, UniProt P40337+Q00534); experiment: Protac activity at VHL/CDK6 in human MM1.S cells assessed as degradation of CDK6 incubated for 16 hrs by immunoblot assay; format: cell-based
OVCAR-8 = experiment: Antiproliferative activity against human OVCAR-8 cells; format: functional, cell-based
HeLa = experiment: Antiproliferative activity against human HeLa cells; format: functional, cell-based
T47D = experiment: Antiproliferative activity against human T47D cells; format: functional, cell-based
[26] = target: von Hippel-Lindau disease tumor suppressor/Epidermal growth factor receptor (Homo sapiens, UniProt P00533+P40337); experiment: Protac activity at VHL/wildtype EGFR in human OVCAR-8 cells assessed as degradation of wild type EGFR incubated for 24 hrs by immunoblot assay; format: cell-based

- pIC50 (NCI-H358): 6.29
SMILES: C=CC(=O)N1CCN(c2nc(NCCCN3CCN(CCCNc4cccc5c4C(=O)N(C4CCC(=O)NC4=O)C5=O)CC3)nc3cc(Cl)c(-c4cc(O)cc5ccccc45)c(F)c23)CC1 (stereo not given)

- pEC50 [1]: 7.64
SMILES: COc1cc(C(=O)NCCOCCOCCOCCNC(=O)C[C@@H]2N=C(c3ccc(Cl)cc3)c3c(sc(C)c3C)-n3c(C)nnc32)ccc1NC(=O)[C@@H]1N[C@@H](CC(C)(C)C)[C@](C#N)(c2ccc(Cl)cc2F)[C@H]1c1cccc(Cl)c1F

- pEC50 [2]: 9.06
SMILES: Cc1sc2c(c1C)C(c1ccc(Cl)cc1)=N[C@@H](CC(=O)NCCCCCNC(=O)COc1ccc(C3CCC(=O)NC3=O)cc1)c1nnc(C)n1-2 (stereo not given in full)

- pEC50 [10]: 7.47
- pEC50 [11]: 7.89
SMILES: CC(=O)C1=C(O)N(C2CCCC2)c2nc(Nc3ccc(N4CCN(Cc5cn(CCCCCNc6cccc7c6C(=O)N(C6CCC(=O)NC6=O)C7=O)nn5)CC4)cn3)ncc2C1C (stereo not given)

- pIC50 (BaF3): 7.02
SMILES: O=C1CCC(N2C(=O)c3cccc(NCCOCCOCCOCCN4CCN(c5ccc(-c6ccc7c(c6)C(=O)N(C(C(=O)Nc6nccs6)c6ccccc6)C7)cn5)CC4)c3C2=O)C(=O)N1 (stereo not given)

- pEC50 [12]: 8.72
SMILES: O=C(CCCCCCC(=O)N/N=C/c1ccc(OCCCC#Cc2cccc3c2CN(C2CCC(=O)NC2=O)C3=O)cc1)NO (stereo not given)

- pIC50 (MM1.S): 7.37
SMILES: Nc1ccccc1NC(=O)c1ccc(COc2cccc3c2CN(C2CCC(=O)NC2=O)C3=O)cc1 (stereo not given)

- pEC50 [25]: 8.29
SMILES: CC(=O)C1=C(O)N(C2CCCC2)c2nc(Nc3ccc(N4CCN(CCOCCOCCOc5cc(-c6scnc6C)ccc5CNC(=O)[C@@H]5C[C@@H](O)CN5C(=O)C(NC(=O)C5(F)CC5)C(C)(C)C)CC4)cn3)ncc2C1C (stereo not given in full)

- pEC50 [11]: 7.01
SMILES: CN(C)C(=O)c1cn(C2CCCC2)c2cnc(Nc3ccc(N4CCN(c5cn(CCCCCNc6cccc7c6C(=O)N(C6CCC(=O)NC6=O)C7=O)nn5)CC4)cn3)nc12 (stereo not given)

- pEC50 [26]: 7.41
SMILES: Cc1ncsc1-c1ccc(CNC(=O)[C@@H]2C[C@@H](O)CN2C(=O)[C@@H](NC(=O)COCCOCCOCCOc2ccc(-c3ccc4ncnc(Nc5ccc(OCc6cccc(F)c6)c(Cl)c5)c4c3)cc2)C(C)(C)C)cc1

Continued, molecule first:

SMILES: COc1cc(Cl)c(-c2cc(Cl)ccc2Cl)cc1C(=O)N1CCN(C(=O)/C=C/C(=O)NCCCCCCNc2cccc3c2C(=O)N(C2CCC(=O)NC2=O)C3=O)CC1 (stereo not given)
- pEC50 [3]: 5.90

SMILES: Cc1ncsc1-c1ccc(CNC(=O)[C@H]2C[C@H](O)CN2C(=O)[C@H](NC(=O)COCC(C)(COCCOCCOCCNC(=O)C[C@H]2N=C(c3ccc(Cl)cc3)c3c(sc(C)c3C)-n3c(C)nnc32)COCCOCCOCCNC(=O)C[C@H]2N=C(c3ccc(Cl)cc3)c3c(sc(C)c3C)-n3c(C)nnc32)C(C)(C)C)cc1
- pIC50 [4]: 8.96
- pEC50 [5]: 8.48
- pEC50 [6]: 8.96
- pEC50 [7]: 9.15

SMILES: CC1(C)C(=O)N(c2ccc(C#N)c(C(F)(F)F)c2)C(=S)N1COCCOCCOn1cc(CCCCCC(=O)CC23CC4CC(CC(C4)C2)C3)nn1
- Activity [8]: 82.6%
- pIC50 (LNCaP): 5.76

SMILES: CCCNNC(=O)c1ccc(-c2ccc(NC(=O)CCCCCCC(=O)NC(C(=O)N3C[C@@H](O)C[C@@H]3C(=O)N[C@H](C)c3ccc(-c4scnc4C)cc3)C(C)(C)C)cc2)cc1 (stereo not given in full)
- pEC50 [9]: 7.38

SMILES: C#CCCN(C(=O)CCl)c1ccc2c(c1)OCCN2CC(=O)NCCCCNC(=O)C[C@@H]1N=C(c2ccc(Cl)cc2)c2c(sc(C)c2C)-n2c(C)nnc21
- pEC50 [13]: 6.60

SMILES: C=C(F)C(=O)N1CCN(c2nc(O[C@@H]3CCCN3CCCOCCC(=O)N[C@H](C(=O)N3C[C@H](O)C[C@H]3C(=O)NCc3ccc(-c4scnc4C)cc3)C(C)(C)C)nc3c2CCN(c2cccc4cccc(Cl)c24)C3)C[C@H]1CC#N
- pEC50 [14]: 6.60
- pEC50 [15]: 6.60
- pEC50 [16]: 6.60
- pEC50 [17]: 6.60
- pEC50 [18]: 6.60

SMILES: Cc1ncsc1-c1ccc([C@@H](C)NC(=O)[C@H]2C[C@H](O)CN2C(=O)[C@H](NC(=O)CCCCOc2ccc(CCNC(=O)c3ccc(C(=O)c4c(-c5ccc(O)cc5)sc5cc(O)ccc45)cc3)cc2)C(C)(C)C)cc1
- pIC50 (MCF7 [19]): 7.88
- pEC50 [20]: 8.96

SMILES: Cc1ncsc1-c1ccc2c(c1)OCCOCCO[C@H](NC(=O)C[C@@H]1N=C(c3ccc(Cl)cc3)c3c(sc(C)c3C)-n3c(C)nnc31)COCCOCCOCC(=O)N[C@H](C(C)(C)C)C(=O)N1C[C@@H](O)C[C@@H]1C(=O)NC2
- pEC50 [21]: < 6.90
- pEC50 (MV4-11): 6.52
- pEC50 [22]: 7.60
- pEC50 [23]: < 6.90

SMILES: CCN(CCCCCCCC(=O)NC(C(=O)N1C[C@@H](O)C[C@@H]1C(=O)N[C@H](C)c1ccc(-c2scnc2C)cc1)C(C)(C)C)CCOc1ccc(C(=O)c2c(-c3ccc(O)cc3)sc3cc(O)ccc23)cc1 (stereo not given in full)
- pIC50 (MCF7 [24]): 9.10

SMILES: Cc1ncsc1-c1ccc(CNC(=O)[C@@H]2C[C@@H](OC(=O)CCCCn3cc(NC(=O)CC[C@@H](NC(=O)c4ccc(NCc5cnc6nc(N)[nH]c(=O)c6n5)cc4)C(=O)O)nn3)CN2C(=O)[C@@H](NC(=O)COCCCOCCNC(=O)C[C@@H]2N=C(c3ccc(Cl)cc3)c3c(sc(C)c3C)-n3c(C)nnc32)C(C)(C)C)cc1
- pIC50 (OVCAR-8): 6.53
- pIC50 (HeLa): 6.61
- pIC50 (T47D): 7.74
